A short description of data set [1]: Mouse PBL (plasma:brain level) study. In kind it is in vivo.
Method: fortified tube and immediately placed on wet ice. The blood sample was then centrifuged (1700 rcf, 5 minutes, 4 °C) to obtain plasma sample. At the same post-administration time point, a whole brain sample was obtained by rapid dissection, rinsed with PBS, and immediately frozen in individual tissue collection box (dry ice). All brain and plasma samples were stored at -80 °C until
Sample Analysis: Concentrations in plasma and brain homogenates were quantified by liquid chromatography tandem mass spectrometry (LC-MS/MS). Whole brains were homogenized in 3 mL of 70:30 IPA:water in a mini bead beater for 3 min, and centrifuged at 3,500 g for 5 min. 5 uL of the supernatant was diluted in 15 uL of blank plasma for quantification of the analytes. Plasma samples were centrifuged at 3,500 g for 5 min. A standard curve was generated by diluting the analytes DMSO stocks with blank plasma to obtain a final concentration of 10,000 ng/mL followed by a serial dilution down to 0.5 ng/mL. Quality controls were generated by a serial dilution of the 5,000 ng/mL standard curve solution in blank plasma to obtain 3 concentrations of 500, 50, and 5 ng/mL. 20 uL of brain diluted in plasma, plasma, blank plasma, standard curve and QC samples were loaded in a V-bottom 96-well plate. 120 uL of acetonitrile containing 0.05 uM carbamazepine (internal standard) was added to each well and the plate was centrifuged at 3,500 g for 5 min. 60 uL of the supernatant of each well (protein free) was transferred to a new 96-well plate containing 60 uL of water. The plates were sealed for analysis by LC-MS/MS.
Plasma and brain tissue samples originating from in vivo studies were analyzed by electrospray ionization using an AB Sciex Q-TRAP 5500 (Foster City, CA) that was coupled to a Shimadzu LC-20AD pump (Columbia, MD) and a Leap Technologies CTC PAL auto-sampler (Carrboro, NC). Analytes were separated by gradient elution using a C18 column (3 x 50 mm, 3 mm; Fortis Technologies Ltd, Cheshire, UK) that was thermostated at 40 °C. HPLC mobile phase A was 0.1% formic acid in water (pH unadjusted); mobile phase B was 0.1% formic acid in acetonitrile (pH
min, with an isocratic hold for 0.5 min, before transitioning to 10% B over 0.05 min. The column was re-equilibrated (1 min) before the next sample injection. The total run time was 2.55 min, and the HPLC flow rate was 0.5 mL/min. The source temperature was set at 500 °C, and mass spectral analyses were performed using a Turbo-Ion spray source in positive ionization mode (5.0-kV spray voltage) and using multiple-reaction monitoring of transitions specific for the analytes. All data were analyzed using AB Sciex Analyst 1.5.1 software.
Brain plasma concentration ratio (Kp) was calculated by dividing brain concentration by plasma concentration for each animal. Unbound brain to unbound plasma concentration ratio (Kp,uu) is calculated using the following formula: Kp,uu = (Brain ng/g x brain fu)/(plasma ng/mL x plasma
Data set [2] addresses Glucocorticoid (Homo sapiens, UniProt P04150). The experiment in a line: Eurofins lead profiling screen (radioligand binding).
The target in data set [3] is Muscarinic M2 (Homo sapiens, UniProt P08172). The data set is described as above.
Data set [4] addresses Glutamate, NMDA, Glycine (Rattus norvegicus, UniProt P35439). The data set is described as above.
Data set [5] deals with Opiate μ (OP3, MOP) (Homo sapiens, UniProt P35372). The data set is described as above.
In data set [6] the target is Histamine H1 (Homo sapiens, UniProt P35367). The description is as above.
Data set [7] concerns Purinergic P2Y. The data set is described as above. Further details: species or system Rat.
In data set [8] the target is Androgen (Testosterone) (Homo sapiens, UniProt P10275). The description is as above.
Data set [9] addresses Adrenergic α1B (Rattus norvegicus, UniProt P15823). The data set is described as above.

Sequence of Glucocorticoid (P04150 whole entry): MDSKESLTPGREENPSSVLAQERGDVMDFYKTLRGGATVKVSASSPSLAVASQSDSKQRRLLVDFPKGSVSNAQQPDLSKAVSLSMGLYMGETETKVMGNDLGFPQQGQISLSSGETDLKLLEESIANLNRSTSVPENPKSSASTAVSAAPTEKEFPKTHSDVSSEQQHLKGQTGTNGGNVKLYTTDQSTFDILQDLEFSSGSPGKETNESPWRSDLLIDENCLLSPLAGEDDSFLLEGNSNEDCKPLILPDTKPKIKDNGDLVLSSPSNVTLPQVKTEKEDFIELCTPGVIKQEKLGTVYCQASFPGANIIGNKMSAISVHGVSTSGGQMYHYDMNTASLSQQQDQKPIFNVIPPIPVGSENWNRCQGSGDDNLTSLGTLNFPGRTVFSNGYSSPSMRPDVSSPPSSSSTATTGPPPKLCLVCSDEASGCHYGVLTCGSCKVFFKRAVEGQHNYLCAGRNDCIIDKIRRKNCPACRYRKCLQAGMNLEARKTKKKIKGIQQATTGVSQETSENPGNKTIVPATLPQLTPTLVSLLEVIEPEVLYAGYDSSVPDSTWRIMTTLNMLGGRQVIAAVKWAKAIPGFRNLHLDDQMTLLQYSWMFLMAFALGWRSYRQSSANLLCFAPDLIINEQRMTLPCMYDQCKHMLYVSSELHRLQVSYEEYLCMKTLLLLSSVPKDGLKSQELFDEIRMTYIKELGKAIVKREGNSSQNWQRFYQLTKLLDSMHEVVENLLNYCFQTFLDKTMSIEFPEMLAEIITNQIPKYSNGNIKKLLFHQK
Sequence of Androgen (Testosterone) (P10275 whole entry): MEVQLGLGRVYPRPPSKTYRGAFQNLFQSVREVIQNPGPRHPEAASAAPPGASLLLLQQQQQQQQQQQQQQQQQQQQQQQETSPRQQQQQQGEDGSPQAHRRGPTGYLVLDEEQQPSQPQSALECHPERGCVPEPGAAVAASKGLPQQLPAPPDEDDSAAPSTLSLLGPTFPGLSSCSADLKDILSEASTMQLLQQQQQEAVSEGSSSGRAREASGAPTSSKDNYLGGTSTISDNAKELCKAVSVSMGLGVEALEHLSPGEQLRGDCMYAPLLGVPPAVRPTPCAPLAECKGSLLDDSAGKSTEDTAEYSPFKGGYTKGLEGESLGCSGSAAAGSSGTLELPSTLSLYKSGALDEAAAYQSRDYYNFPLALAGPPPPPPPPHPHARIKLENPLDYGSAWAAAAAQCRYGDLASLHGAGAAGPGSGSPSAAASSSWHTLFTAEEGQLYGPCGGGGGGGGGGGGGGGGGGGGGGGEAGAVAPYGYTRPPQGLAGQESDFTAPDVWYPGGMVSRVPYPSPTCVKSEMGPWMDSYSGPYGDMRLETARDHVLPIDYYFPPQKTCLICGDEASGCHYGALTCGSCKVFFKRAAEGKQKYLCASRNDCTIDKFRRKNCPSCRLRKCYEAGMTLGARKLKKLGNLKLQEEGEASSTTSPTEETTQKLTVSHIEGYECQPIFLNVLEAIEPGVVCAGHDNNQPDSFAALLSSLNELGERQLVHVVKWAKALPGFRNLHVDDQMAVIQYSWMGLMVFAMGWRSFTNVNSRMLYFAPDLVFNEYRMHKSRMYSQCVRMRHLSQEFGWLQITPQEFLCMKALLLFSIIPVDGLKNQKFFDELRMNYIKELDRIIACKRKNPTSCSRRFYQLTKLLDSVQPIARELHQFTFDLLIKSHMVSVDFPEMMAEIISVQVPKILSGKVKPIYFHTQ
Sequence of Muscarinic M2 (P08172 whole entry): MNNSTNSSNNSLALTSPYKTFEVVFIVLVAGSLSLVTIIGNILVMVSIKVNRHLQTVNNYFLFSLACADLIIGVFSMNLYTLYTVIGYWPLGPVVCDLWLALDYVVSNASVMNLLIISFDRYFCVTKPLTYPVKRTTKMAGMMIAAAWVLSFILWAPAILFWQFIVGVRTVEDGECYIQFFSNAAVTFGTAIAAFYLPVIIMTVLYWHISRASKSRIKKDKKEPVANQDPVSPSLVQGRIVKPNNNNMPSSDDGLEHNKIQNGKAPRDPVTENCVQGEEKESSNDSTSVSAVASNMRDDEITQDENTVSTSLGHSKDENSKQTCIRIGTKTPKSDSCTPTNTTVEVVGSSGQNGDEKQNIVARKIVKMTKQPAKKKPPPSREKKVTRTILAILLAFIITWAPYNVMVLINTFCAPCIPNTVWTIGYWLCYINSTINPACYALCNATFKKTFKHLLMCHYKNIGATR
Sequence of Histamine H1 (P35367 whole entry): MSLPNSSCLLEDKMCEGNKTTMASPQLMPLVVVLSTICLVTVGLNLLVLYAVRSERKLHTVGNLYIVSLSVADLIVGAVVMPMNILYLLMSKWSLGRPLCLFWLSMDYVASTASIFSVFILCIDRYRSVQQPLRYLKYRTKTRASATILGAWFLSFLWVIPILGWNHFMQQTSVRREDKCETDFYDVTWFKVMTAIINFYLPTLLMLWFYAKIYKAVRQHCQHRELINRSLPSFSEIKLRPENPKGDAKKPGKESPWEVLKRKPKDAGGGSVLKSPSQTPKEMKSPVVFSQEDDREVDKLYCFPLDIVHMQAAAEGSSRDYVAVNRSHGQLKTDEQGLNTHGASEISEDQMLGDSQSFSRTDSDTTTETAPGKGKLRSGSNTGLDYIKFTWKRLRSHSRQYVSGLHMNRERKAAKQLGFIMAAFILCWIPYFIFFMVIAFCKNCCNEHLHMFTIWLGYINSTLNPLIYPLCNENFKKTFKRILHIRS
Sequence of Opiate μ (OP3, MOP) (P35372 whole entry): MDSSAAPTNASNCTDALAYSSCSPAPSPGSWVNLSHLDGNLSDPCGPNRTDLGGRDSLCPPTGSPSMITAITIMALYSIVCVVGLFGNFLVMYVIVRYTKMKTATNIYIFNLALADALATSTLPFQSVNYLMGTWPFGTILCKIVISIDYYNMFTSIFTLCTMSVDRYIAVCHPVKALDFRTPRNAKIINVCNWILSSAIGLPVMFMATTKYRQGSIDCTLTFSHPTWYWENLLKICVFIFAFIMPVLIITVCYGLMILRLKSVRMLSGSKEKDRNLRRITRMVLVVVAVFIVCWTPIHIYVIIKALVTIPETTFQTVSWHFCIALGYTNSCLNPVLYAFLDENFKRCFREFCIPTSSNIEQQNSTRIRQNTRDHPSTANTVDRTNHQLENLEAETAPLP
Sequence of Adrenergic α1B (P15823 whole entry): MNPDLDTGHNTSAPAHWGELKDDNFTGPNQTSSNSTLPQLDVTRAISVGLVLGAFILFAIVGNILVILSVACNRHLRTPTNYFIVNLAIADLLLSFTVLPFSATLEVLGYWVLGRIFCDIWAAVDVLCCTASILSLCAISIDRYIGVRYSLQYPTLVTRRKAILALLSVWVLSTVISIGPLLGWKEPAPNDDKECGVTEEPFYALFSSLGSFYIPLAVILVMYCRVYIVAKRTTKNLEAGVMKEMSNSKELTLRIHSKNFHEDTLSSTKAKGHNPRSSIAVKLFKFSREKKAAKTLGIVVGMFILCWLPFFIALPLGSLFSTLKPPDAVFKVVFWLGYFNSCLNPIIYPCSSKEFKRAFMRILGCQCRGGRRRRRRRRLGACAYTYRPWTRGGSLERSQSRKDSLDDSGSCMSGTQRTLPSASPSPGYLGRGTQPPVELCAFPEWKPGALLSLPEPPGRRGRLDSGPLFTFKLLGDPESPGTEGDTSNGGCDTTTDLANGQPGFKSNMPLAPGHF

With `Cc1cc(C#Cc2ccc(F)cc2)cnc1NC(=O)c1cc(NC(=O)OC(C)(C)C)ccc1Cl` [Compound 14c], the Tmax in data set [1] (CD-1, brain, mouse, 10 mg/kg IP) is 4 h. Besides, in data set [1] (CD-1 male mouse, 10 mg/kg PO), the “Cmax total brain concentration” value turned out to be 0.252 µM and the “brain AUC” value came out at 2269 nM·h. Also, the Tmax in data set [1] (brain, CD-1 male mouse, 10 mg/kg PO) is 4 h. Besides, in [1] (mouse, 10 mg/kg IP), the “Cmax total brain exposure” value stood at 0.888 µM and the “brain AUC” value was 12,261 h*nM. Besides, in data set [1] (mouse, 10 mg/kg IP, based on mouse brain homogenate binding), the Cmax unbound brain was 0.0053 µM.

On to `O=C(NCc1ccc(OC(F)(F)F)cc1F)c1ccc2ncnn2c1` [ONO-2920632], for which the inhibition at 10 µM in data set [2] was -4%; in data set [3], 0%; in data set [4], -6%; in [5] it was 15%; in data set [6], 12%; in [8] it was 7%. Moreover, in data set [9], the inhibition at 10 µM was found to be 11%. Besides, in data set [7], the “% Inhibition at 10 µM” value is listed as 1%.

As usually defined, the Tmax is the time at which the peak concentration occurs. In general, inhibition refers to the drop in the measured response relative to a control, in per cent. The term % Inhibition denotes the percentage by which the read-out fell short of the control. A lower % Inhibition goes with little suppression.

For the origin of these results see paper PMC12067145 (ACS Medicinal Chemistry Letters, 2025).
